According to patent publication US20210214385A1, “INHIBITORS OF D-AMINO ACID OXIDASE AND USES THEREOF” (SyneuRx International (Taiwan) Corp., priority 2018, published 2021):

Assays:
[1] = Concentration in mouse brain after i.p. administration, HPLC-MS after tannase hydrolysis into gallic acid; format: in vivo, mice
Procedure: The objective of this experiment was to compare the concentration of Compound 24 and enriched tannic acid in mouse brain after intraperitoneal (i.p.) administration. The enriched tannic acid was prepared by the enrichment method 10 of U.S. Ser. No. 10/105,378. C57BL/6J mice at 14 weeks of age were divided into two groups with 3 mice each. The mice in group I and II were, respectively, i.p. injected with Compound 24 at 30 mg/kg and enriched tannic acid at 15 mg/kg once every two days for three months. The brain sample was collected from each animal at 24 hours after the final i.p. administration and immediately frozen and stored at −70° C. until further use.
The amounts of Compound 24 and enriched tannic acid in mice brain were analyzed by high performance liquid chromatography-mass spectrometry (HPLC-MS) after enzymatic hydrolysis into gallic acid. Each frozen brain sample was homogenized with 4-fold volume of deionized water (ddH2O) using a handheld tissue homogenizer (BT Lab Systems). […]
Chromatographic analysis was performed using a Phenomenex Kinetex C8 column (150×4.6 mm, 5 μm). […] Quantitation was done using the selected-ion monitoring chromatogram (SIM) mode to monitor the precursor ion of m/z 169 for gallic acid and m/z 137 for 4-hydroxybenzoic acid as an internal standard. […]

[2] = molecular target: human D-amino acid oxidase (hDAAO) (Homo sapiens, UniProt P14920); assay: In vitro measurement of human D-amino acid oxidase (hDAAO) activity, D-Serine substrate, Amplex Red fluorescence; format: biochemical
Chain of human D-amino acid oxidase (hDAAO) (P14920 whole entry): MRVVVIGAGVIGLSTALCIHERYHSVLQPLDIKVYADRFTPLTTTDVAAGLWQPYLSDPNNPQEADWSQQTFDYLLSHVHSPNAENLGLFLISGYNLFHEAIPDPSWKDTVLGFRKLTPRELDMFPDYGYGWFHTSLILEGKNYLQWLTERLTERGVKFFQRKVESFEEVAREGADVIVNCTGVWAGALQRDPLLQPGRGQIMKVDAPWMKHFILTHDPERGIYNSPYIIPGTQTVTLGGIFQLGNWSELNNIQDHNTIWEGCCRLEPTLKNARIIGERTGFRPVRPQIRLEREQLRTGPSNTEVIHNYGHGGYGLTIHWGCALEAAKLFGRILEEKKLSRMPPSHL

MK-801 treated mice = assay: Pre-pulse inhibition in MK-801 treated mice; format: in vivo; conditions: 30 mg/kg oral, MK-801 0.3 mg/kg i.p., male mice
Procedure: C57BL/6J male mice were group housed under the same condition as described in Example 1. Mice were randomly assigned into three groups, Group 1: vehicle control, Group 2: MK-801, Group 3: Cpd 24 (30 mg/kg)+MK-801. Mice in Group 2-3 received an acute intraperitoneal (i.p.) injection of MK-801 (Sigma-Aldrich USA), a NMDA receptor antagonist, dissolved in normal saline, at 0.3 mg/kg 20 minutes prior to the pre-pulse inhibition test. Each mouse in Group 1-2 and Group 3 received, respectively, an acute oral administration of 65% PEG400 in ddH2O and compound 24 at 30 mg/kg (dissolved with 65% PEG400 in ddH2O) 20 minutes prior to the MK-801 administration.
Pre-pulse inhibition, using SR-LAB startle apparatus (San Diego Instruments, San Diego, Calif., USA), was used to determine the efficacy of compound 24 on attenuating the MK-801 induced deficit of sensorimotor gating function in mice. Under 65 dB background noise, each session was composed of 5-minutes accumulation period followed by 64 trials in four blocks. The pulse alone (PA) trial was a 40 ms, 120 dB white noise burst. In the prepulse (pp)+pulse trials, a 20 ms white noise prepulse stimuli of 71 dB (pp6), 75 dB (pp10), and 83 dB (pp18) were presented 100 ms before a 40 ms 120 dB pulse. The non-stimulus (NS) trials presented the background noise only. The initial and the last blocks were composed of six PA trials, respectively. Two middle blocks consisted of PA, pp+pulse, and NS trials. These trials were presented pseudo-randomly and separated by intertribal intervals of 15 seconds on average (varying between 10 to 20 s). The percentage of prepulse inhibition was evaluated by the following formula: % PPI=100× [(PA score)−(pp-P score)]/(PA score), where the PA score was the average of the PA value in the middle blocks.

in vivo = conditions: C57BL/6J, mouse, po
[3] = Log P, n-octanol/water partition coefficient, HPLC; format: physicochemical
Procedure: The sample compounds tested in the log P experiments included enriched tannic acid (prepared by the enrichment method 10 of U.S. Ser. No. 10/105,378), compounds 21, 24, 27, 46, and 56. First, n-Octanol and water was saturated with each other to achieve partition equilibrium and the two phases were separated for further use. Sample compounds were dissolved in water and n-octanol phase, respectively. Both phases were mixed by vertical rotation movement. After the water and n-octal phases reached equilibrium state, both phases were analyzed to determine the concentrations of the sample compounds for the determination of log P values. All samples were performed in a Shimadzu CBM-20A FfPLC system. The chromatographic separation was carried out on a 5 μm, Kinetex C18 100 Å LC column (100×4.6 mm). The mobile phase was 0.1% formic acid in water and acetonitrile/Methanol set as gradient. Flow rate used was 1.2 mL/min. Column was at room temperature 20±5° C.
The partition coefficient abbreviated P is calculated based on the concentration in n-octanol divided by the concentration in water. The formula of log P is shown below: […]

## O=C(OC[C@H]1O[C@H](OC(=O)c2cc(O)c(O)c(OC(=O)c3cc(O)c(O)c(OC(=O)c4cc(O)c(O)c(O)c4)c3)c2)[C@H](OC(=O)c2cc(O)c(O)c(OC(=O)c3cc(O)c(O)c(OC(=O)c4cc(O)c(O)c(O)c4)c3)c2)[C@@H](OC(=O)c2cc(O)c(O)c(OC(=O)c3cc(O)c(O)c(OC(=O)c4cc(O)c(O)c(O)c4)c3)c2)[C@@H]1OC(=O)c1cc(O)c(O)c(OC(=O)c2cc(O)c(O)c(OC(=O)c3cc(O)c(O)c(O)c3)c2)c1)c1cc(O)c(O)c(OC(=O)c2cc(O)c(O)c(OC(=O)c3cc(O)c(O)c(O)c3)c2)c1 [Compound 24, (2R,3R,4S,5R,6R)-6-(((3-((3,4-dihydroxy-5-((3,4,5-trihydroxybenzoyl)oxy)benzoyl)oxy)-4,5-dihydroxybenzoyl)oxy)methyl)tetrahydro-2H-pyran-2,3,4,5-tetrayl tetrakis(3-((3,4-dihydroxy-5-((3,4,5-trihydroxybenzoyl)oxy)benzoyl)oxy)-4,5-dihydroxybenzoate)]
[1]; 30 mg/kg i.p. once every two days for three months, 24 hours after final dose
  Concentration (amount per g brain tissue): 2714.19 ng/g
[1]; compound 24 at 30 mg/kg vs enriched tannic acid at 15 mg/kg i.p.
  brain concentration relative to enriched tannic acid: more than 9 times
[2]
  IC50: 13 nM
MK-801 treated mice; 71 dB pre-pulse intensity
  pre-pulse inhibition percentage: moderately increased the inhibition percentage
MK-801 treated mice; 75 dB pre-pulse intensity
  MK-801 induced pre-pulse inhibition deficit: significantly improved
MK-801 treated mice; 83 dB pre-pulse intensity
  pre-pulse inhibition percentage: moderately increased the inhibition percentage
In vivo
  MTD at 7 day: 4500 mg/kg
[3]
  logP: 0.58
